pIC50: −log10 of the molar value. Where two headings read alike, the source gives them in different places.
Assays:
[1] = biological target: ErbB2 with Exon 20 YVMA insertion (HER2-YVMA) (Homo sapiens (Human), UniProt P04626, INS775YVMA); assay: Cellular phosphorylation assay, constitutive ErbB2 phosphorylation (Y1196) in engineered NIH 3T3 cells, Assay 4; format: cell-based
Outline: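 Engineered NIH 3T3 cells expressing HER2-YVMA treated with compounds 1 h at 37 °C, then formaldehyde-fixed and methanol-permeabilized. pErbB2 Y1196 detected by in-cell infrared immunofluorescence, normalized to GAPDH. IC50 from the normalized curves.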

BCRP = BCRP (Homo sapiens (Human), UniProt Q9UNQ0); assay: BCRP transfected MDCKII canine Mdr1 knockout permeability/efflux, Assay 9; conditions: dog
[2] = biological target: ErbB2 insYVMA (HER2-YVMA, SEQ ID NO: 2) (Homo sapiens, UniProt P04626, INS775YVMA/P1170A); assay: biochemical; conditions: ErbB2 insYVMA enzyme assay; for pIC50: read-out: Assay 1 IC50
ErbB2 WT = ErbB2 WT (Homo sapiens (Human), UniProt P04626); assay: ErbB enzyme assay (CisBio HTRF KinEASE-TK), Assay 2; format: biochemical
Outline: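 ErbB2 phosphorylates 250 nM biotin-TK substrate at 1 mM ATP in 25 mM HEPES pH 7.4, 10 mM MgCl2, 0.01% Triton X-100 and 2% DMSO, for 30 min at 22 °C. Product is detected by HTRF with Sa-XL665 and TK-Ab-Cryptate. Percent of control is set by DMSO-only wells and pre-quenched wells.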

MDR1 (P-gp) = MDR1 (P-gp) (Homo sapiens (Human), UniProt P08183); assay: MDR1 transfected MDCKII canine Mdr1 knockout permeability/efflux, Assay 7; conditions: dog, MDCK-MDR1
Protocol: Both MDR1 transfected LLC-PK1 (Assay 6) and MDR1 transfected MDCKII canine Mdr1 knockout cells (Assay 7) were cultured and plated according to manufacturer's recommendations with the exception that the passage media for the MDR1 transfected LLC-PK1 cell line contained only 2% fetal bovine serum so as to extend passage time out to seven days.
Both positive and negative controls were used to assess functionality of P-gp or BCRP efflux in the assays. Stock solutions for assay controls and the test article were prepared in DMSO for final test concentration of 1 μM. Final organic concentration in the assay was 1%. All dosing solutions contained 10 μM lucifer yellow to monitor MDCKII cell monolayer integrity.
For the apical to basolateral determination (A to B), 75 μL of the test article in transport buffer were added to the apical side of the individual transwells and 250 μL of basolateral media, without compound or lucifer yellow, were added to each well. For the basolateral to apical determination (B to A), 250 μL of test article in transport buffer were added to each well and 75 μL transport buffer, without compound or lucifer yellow, were added to each transwell. All tests were performed in triplicate, and each compound was tested for both apical to basolateral and basolateral to apical transport. The plates were incubated for 2 hours on a Lab-Line Instruments Titer Orbital Shaker (VWR, West Chester, PA) at 50 rpm and 37° C. with 5% CO2. All culture plates were removed from the incubator, 50 μL of media were removed from the apical and basolateral portion of each well, and added to 150 μL of 1 μM labetalol in 2:1 acetonitrile (ACN): H2O, v/v.
The plates were read using a Molecular Devices (Sunnyvale, CA) Gemini Fluorometer to evaluate the lucifer yellow concentrations at excitation/emission wavelengths of 425/535 nm. These values were accepted when found to be below 2% for apical to basolateral and 5% basolateral to apical flux across the MDR1-transfected LLC-PK1 or BCRP-transfected MDCKII cell monolayers. The plates were sealed, and the contents of each well analyzed by LC MS/MS. The compound concentrations were determined from the ratio of the peak areas of the compound to the internal standard (labetalol) in comparison to the dosing solution.
A MDS Sciex API 4000 (Applied Biosystems, Foster City, CA) mass spectrometer was used for detection of the analytes in the ion spray positive mode. Analyte responses were measured by multiple reaction monitoring (“MRM”) of transitions unique to each compound (the protonated precursor ion and selected product ions for each test article and m/z 329 to m/z 162 for labetalol, the internal standard.
The total run time, including re-equilibration, for a single injection was 1.2 minutes. […] The total run time, including re-equilibration, for a single injection was 0.61 minutes.
An efflux ratio is calculated from the mean apical to basolateral (A-B) Papp data and basolateral to apical (B-A) Papp data: Efflux ratio=Papp(B−A)/Papp(A−B)

EGFR = EGFR (Homo sapiens (Human), UniProt P00533); assay: ErbB enzyme assay (CisBio HTRF KinEASE-TK), Assay 3; format: biochemical
Outline: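 HTRF KinEASE-TK assay: kinase with 250 nM biotinylated TK-substrate and 1 mM ATP in 25 mM HEPES pH 7.4, 10 mM MgCl2, 0.01% Triton X-100, 2% DMSO, 30 min at 22 °C. Quenched with Sa-XL665/TK-Ab-Cryptate, read after 1 h. IC50 from 4-parameter fit of percent of control.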

EGFR wild type (EGFR WT) = EGFR wild type (EGFR WT) (Homo sapiens (Human), UniProt P00533); assay: Cellular phosphorylation assay, EGF-stimulated EGFR phosphorylation in engineered NIH 3T3 cells, Phospho-EGFR DuoSet IC ELISA, Assay 5; format: cell-based
Outline: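 NIH 3T3 cells expressing EGFR WT (20,000/well, attached overnight) were exposed to serially diluted compound for 1 h at 37 °C, then stimulated with 100 ng/ml rEGF for 10 min. Phospho-EGFR in lysates measured by sandwich ELISA optical density; IC50 from curves.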

[3] = Assay 9 Pe Ratio, efflux ratio Papp(B-A)/Papp(A-B), BCRP transfected MDCKII canine Mdr1 knockout

Chain of EGFR wild type (EGFR WT) (P00533 25-1210): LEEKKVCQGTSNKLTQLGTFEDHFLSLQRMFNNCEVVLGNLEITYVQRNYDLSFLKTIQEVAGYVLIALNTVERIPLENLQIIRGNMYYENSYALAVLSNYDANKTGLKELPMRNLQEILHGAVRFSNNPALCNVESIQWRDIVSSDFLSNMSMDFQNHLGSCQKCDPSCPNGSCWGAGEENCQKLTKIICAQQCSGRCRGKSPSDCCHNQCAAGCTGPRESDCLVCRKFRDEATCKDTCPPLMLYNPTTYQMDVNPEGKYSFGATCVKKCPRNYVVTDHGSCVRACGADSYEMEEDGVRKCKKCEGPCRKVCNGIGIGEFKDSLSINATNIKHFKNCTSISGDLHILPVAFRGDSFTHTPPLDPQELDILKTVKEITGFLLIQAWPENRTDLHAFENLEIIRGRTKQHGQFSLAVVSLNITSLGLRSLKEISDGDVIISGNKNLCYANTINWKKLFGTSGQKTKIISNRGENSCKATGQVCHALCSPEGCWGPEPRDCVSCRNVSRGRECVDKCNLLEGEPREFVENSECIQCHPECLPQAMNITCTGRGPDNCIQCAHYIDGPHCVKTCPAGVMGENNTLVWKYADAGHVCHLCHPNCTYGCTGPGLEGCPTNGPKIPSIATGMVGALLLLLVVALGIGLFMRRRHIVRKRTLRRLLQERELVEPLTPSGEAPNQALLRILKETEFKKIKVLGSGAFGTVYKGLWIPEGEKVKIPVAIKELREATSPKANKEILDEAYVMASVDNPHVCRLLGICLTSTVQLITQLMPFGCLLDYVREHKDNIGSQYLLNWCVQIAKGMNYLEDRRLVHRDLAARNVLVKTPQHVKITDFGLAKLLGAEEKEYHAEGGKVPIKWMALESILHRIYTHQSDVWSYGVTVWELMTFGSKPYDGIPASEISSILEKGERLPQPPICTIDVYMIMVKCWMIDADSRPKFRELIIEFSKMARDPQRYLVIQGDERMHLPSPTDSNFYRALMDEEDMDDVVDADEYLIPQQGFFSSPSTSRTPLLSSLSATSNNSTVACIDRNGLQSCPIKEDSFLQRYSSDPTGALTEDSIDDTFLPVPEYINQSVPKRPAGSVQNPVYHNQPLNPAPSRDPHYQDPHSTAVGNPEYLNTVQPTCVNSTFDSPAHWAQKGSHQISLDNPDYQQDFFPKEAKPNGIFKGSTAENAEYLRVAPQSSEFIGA
Chain of EGFR (P00533 25-1210): as above
Chain of ErbB2 insYVMA (HER2-YVMA, SEQ ID NO: 2) (P04626 with tags, fused parts or gaps INS775YVMA/P1170A limits assumed): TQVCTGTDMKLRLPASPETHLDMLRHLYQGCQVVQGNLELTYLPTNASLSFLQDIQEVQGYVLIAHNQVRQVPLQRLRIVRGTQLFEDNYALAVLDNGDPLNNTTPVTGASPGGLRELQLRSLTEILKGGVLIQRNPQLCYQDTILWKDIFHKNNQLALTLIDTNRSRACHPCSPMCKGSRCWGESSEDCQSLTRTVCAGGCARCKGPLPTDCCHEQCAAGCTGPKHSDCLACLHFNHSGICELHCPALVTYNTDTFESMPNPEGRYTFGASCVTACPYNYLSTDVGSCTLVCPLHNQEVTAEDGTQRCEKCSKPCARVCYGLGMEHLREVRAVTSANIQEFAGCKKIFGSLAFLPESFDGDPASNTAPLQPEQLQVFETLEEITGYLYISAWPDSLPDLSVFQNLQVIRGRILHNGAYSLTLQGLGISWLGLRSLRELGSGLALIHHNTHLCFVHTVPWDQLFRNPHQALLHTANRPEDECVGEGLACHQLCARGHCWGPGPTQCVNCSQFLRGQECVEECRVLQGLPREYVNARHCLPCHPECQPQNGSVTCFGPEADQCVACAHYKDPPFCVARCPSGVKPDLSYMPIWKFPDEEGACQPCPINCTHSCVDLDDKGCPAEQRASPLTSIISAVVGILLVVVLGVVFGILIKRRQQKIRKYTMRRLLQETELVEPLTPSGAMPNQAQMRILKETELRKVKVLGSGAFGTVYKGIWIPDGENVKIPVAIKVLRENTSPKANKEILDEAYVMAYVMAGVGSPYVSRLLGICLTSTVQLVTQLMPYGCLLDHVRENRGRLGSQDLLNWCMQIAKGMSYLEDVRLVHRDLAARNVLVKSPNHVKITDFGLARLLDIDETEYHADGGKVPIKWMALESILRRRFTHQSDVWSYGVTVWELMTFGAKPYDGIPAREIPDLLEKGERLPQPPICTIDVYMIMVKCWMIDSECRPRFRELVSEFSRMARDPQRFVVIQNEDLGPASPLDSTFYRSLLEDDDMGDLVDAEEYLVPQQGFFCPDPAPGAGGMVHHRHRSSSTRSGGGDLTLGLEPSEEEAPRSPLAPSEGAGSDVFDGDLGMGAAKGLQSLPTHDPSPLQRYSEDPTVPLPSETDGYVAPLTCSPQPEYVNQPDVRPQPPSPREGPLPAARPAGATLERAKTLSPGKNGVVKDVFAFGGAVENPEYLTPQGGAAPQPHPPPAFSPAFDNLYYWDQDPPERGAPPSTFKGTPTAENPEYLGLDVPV
Chain of ErbB2 WT (P04626 23-1255): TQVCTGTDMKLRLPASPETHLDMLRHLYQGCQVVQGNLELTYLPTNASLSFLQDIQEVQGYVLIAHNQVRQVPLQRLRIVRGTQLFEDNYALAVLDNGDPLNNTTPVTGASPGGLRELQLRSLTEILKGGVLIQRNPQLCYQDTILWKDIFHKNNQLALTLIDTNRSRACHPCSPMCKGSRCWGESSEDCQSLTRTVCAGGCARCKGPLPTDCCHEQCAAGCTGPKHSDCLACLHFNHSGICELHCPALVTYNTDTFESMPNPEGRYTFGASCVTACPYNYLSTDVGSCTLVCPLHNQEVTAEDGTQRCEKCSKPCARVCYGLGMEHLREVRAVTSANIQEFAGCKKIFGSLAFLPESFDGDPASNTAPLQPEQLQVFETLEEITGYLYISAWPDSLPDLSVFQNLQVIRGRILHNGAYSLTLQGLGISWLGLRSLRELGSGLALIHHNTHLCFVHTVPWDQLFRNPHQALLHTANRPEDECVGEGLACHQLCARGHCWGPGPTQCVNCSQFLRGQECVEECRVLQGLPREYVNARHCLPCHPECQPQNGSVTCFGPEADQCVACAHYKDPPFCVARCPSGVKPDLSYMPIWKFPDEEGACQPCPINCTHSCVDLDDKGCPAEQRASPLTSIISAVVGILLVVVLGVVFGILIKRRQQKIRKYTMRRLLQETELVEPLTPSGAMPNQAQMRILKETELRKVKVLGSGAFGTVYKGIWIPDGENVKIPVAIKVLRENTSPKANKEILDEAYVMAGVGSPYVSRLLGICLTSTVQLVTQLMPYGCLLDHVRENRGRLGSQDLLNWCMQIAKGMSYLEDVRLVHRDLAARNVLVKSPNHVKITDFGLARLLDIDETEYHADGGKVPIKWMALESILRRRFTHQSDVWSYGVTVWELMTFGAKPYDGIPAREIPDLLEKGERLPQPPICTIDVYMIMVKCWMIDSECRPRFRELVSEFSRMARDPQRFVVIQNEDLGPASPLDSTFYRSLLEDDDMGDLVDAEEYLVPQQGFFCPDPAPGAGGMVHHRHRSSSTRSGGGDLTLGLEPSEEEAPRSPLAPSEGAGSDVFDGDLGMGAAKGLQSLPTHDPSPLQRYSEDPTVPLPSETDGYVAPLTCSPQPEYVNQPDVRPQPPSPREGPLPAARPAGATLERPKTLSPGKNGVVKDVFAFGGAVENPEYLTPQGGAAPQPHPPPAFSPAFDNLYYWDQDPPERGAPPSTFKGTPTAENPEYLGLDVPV

Cc1cc(Nc2ncnc3cnc(N(C)[C@H]4CCC[C@@H]4O)nc23)ccc1Oc1ccc2c(c1)ncn2C [Example 176, (1S,2S)-2-(methyl(8-((3-methyl-4-((1-methyl-1H-benzo[d]imidazol-5-yl)oxy)phenyl)amino)pyrimido[5,4-d]pyrimidin-2-yl)amino)cyclopentan-1-ol]
pIC50 [1]: 7.60
efflux ratio at 2 h, 1 μM (BCRP; [3]): 13.5
pIC50 [2]: 7.49
pIC50 (ErbB2 WT): 7.51
efflux ratio at 2 h, 1 μM (MDR1 (P-gp)): 1.4
pIC50 (EGFR): 5.90
pIC50 (EGFR wild type (EGFR WT)): ≤ 5.30

Cc1cc(Nc2ncnc3cnc(N(C)C4CCOCC4)nc23)ccc1Oc1ccc2c(c1)ncn2C [Example 153, N2-methyl-N8-(3-methyl-4-((1-methyl-1H-benzo[d]imidazol-5-yl)oxy)phenyl)-N2-(tetrahydro-2H-pyran-4-yl)pyrimido[5,4-d]pyrimidine-2,8-diamine]
pIC50 [1]: 7.60
efflux ratio at 2 h, 1 μM (BCRP; [3]): 1.4
pIC50 [2]: 8.12
pIC50 (ErbB2 WT): 7.79
efflux ratio at 2 h, 1 μM (MDR1 (P-gp)): 1.5
pIC50 (EGFR): 5.26
pIC50 (EGFR wild type (EGFR WT)): ≤ 5.30

Cc1cc(Nc2ncnc3cnc(N4CCN5CCOC[C@H]5C4)nc23)ccc1Oc1ccc2c(c1)ncn2C [Example 180, (R)-6-(hexahydropyrazino[2,1-c][1,4]oxazin-8(1H)-yl)-N-(3-methyl-4-((1-methyl-1H-benzo[d]imidazol-5-yl)oxy)phenyl)pyrimido[5,4-d]pyrimidin-4-amine]
pIC50 [1]: 7.81
efflux ratio at 2 h, 1 μM (BCRP; [3]): 2.7
pIC50 [2]: 7.88
pIC50 (ErbB2 WT): 7.68
efflux ratio at 2 h, 1 μM (MDR1 (P-gp)): 1.3
pIC50 (EGFR): 5.34
pIC50 (EGFR wild type (EGFR WT)): ≤ 5.30

Cc1cc(Nc2ncnc3cnc(N4CC[C@@]45CCOC5)nc23)ccc1Oc1ccc2c(c1)ncn2C (single isomer, unassigned) [Example 93a]
pIC50 [1]: 7.69
efflux ratio at 2 h, 1 μM (BCRP): 1.9
pIC50 [2]: 7.77
pIC50 (ErbB2 WT): 7.80
efflux ratio at 2 h, 1 μM (MDR1 (P-gp)): 1.3
pIC50 (EGFR): 5.84
pIC50 (EGFR wild type (EGFR WT)): ≤ 5.30

Cc1cc(Nc2ncnc3cnc(N4CC5(C4)CC(C)(O)C5)nc23)ccc1Oc1ccc2c(c1)ncn2C [Example 156, 6-methyl-2-(8-((3-methyl-4-((1-methyl-1H-benzo[d]imidazol-5-yl)oxy)phenyl)amino)pyrimido[5,4-d]pyrimidin-2-yl)-2-azaspiro[3.3]heptan-6-ol]
pIC50 [1]: 7.91
efflux ratio at 2 h, 1 μM (BCRP): 26
pIC50 [2]: 8.19
pIC50 (ErbB2 WT): 8.28
efflux ratio at 2 h, 1 μM (MDR1 (P-gp)): 2
pIC50 (EGFR): ≤ 5.00
pIC50 (EGFR wild type (EGFR WT)): ≤ 5.30

Cc1cc(Nc2ncnc3cnc(N4CC[C@@H](C(C)(C)O)C4)nc23)ccc1Oc1ccn2ncnc2c1 [Example 124, (R)-2-(1-(8-((4-([1,2,4]triazolo[1,5-a]pyridin-7-yloxy)-3-methylphenyl)amino)pyrimido[5,4-d]pyrimidin-2-yl)pyrrolidin-3-yl)propan-2-ol]
pIC50 [1]: 7.19
efflux ratio at 2 h, 1 μM (BCRP; [3]): 10.3
pIC50 [2]: 7.80
pIC50 (ErbB2 WT): 7.84
efflux ratio at 2 h, 1 μM (MDR1 (P-gp)): 1.4
pIC50 (EGFR): 5.56
pIC50 (EGFR wild type (EGFR WT)): ≤ 5.30

Cc1cc(Nc2ncnc3cnc(N4C[C@@H]5COC[C@@H]54)nc23)ccc1Oc1ccc2c(c1)ncn2C [Example 348]
pIC50 [1]: 7.84
efflux ratio at 2 h, 1 μM (BCRP; [3]): 5
pIC50 [2]: 7.40
pIC50 (ErbB2 WT): 7.16
efflux ratio at 2 h, 1 μM (MDR1 (P-gp)): 1.4
pIC50 (EGFR): ≤ 5.00
pIC50 (EGFR wild type (EGFR WT)): ≤ 5.30

Cc1cc(Nc2ncnc3cnc(N4C[C@@H](F)[C@@H](O)C4)nc23)ccc1Oc1ccc2c(c1)ncn2C [Example 91, (3S,4R)-4-fluoro-1-(8-((3-methyl-4-((1-methyl-1H-benzo[d]imidazol-5-yl)oxy)phenyl)amino)pyrimido[5,4-d]pyrimidin-2-yl)pyrrolidin-3-ol]
pIC50 [1]: 7.85
efflux ratio at 2 h, 1 μM (BCRP; [3]): 50.1
pIC50 [2]: 7.89
pIC50 (ErbB2 WT): 7.69
efflux ratio at 2 h, 1 μM (MDR1 (P-gp)): 2.5
pIC50 (EGFR): 5.17
pIC50 (EGFR wild type (EGFR WT)): ≤ 5.30

Cn1cnc2cc(Oc3ccc(Nc4ncnc5cnc(N6CCN[C@@H](C(F)(F)F)C6)nc45)cc3Cl)ccc21.O=C(O)C(F)(F)F [Example 146, (R)—N-(3-chloro-4-((1-methyl-1H-benzo[d]imidazol-5-yl)oxy)phenyl)-6-(3-(trifluoromethyl)piperazin-1-yl)pyrimido[5,4-d]pyrimidin-4-amine 2,2,2-trifluoroacetate]
pIC50 [1]: 7.45
efflux ratio at 2 h, 1 μM (BCRP): 5.1
IC50 ([2]; Assay 1 IC50 (nM)): 54.1 nM
pIC50 (ErbB2 WT): 7.24
efflux ratio at 2 h, 1 μM (MDR1 (P-gp)): 0.8
pIC50 (EGFR): 5.43
pIC50 (EGFR wild type (EGFR WT)): ≤ 5.30

Cc1cc(Nc2ncnc3cnc(N4CCC5COCC54)nc23)ccc1Oc1ccc2c(c1)ncn2C (centres unmarked) [Example 129, 6-(hexahydro-1H-furo[3,4-b]pyrrol-1-yl)-N-(3-methyl-4-((1-methyl-1H-benzo[d]imidazol-5-yl)oxy)phenyl)pyrimido[5,4-d]pyrimidin-4-amine]
pIC50 [1]: 8.12
efflux ratio at 2 h, 1 μM (BCRP; [3]): 1.7
pIC50 [2]: 7.91
pIC50 (ErbB2 WT): 7.82
efflux ratio at 2 h, 1 μM (MDR1 (P-gp)): 1.4
pIC50 (EGFR): 6.06
pIC50 (EGFR wild type (EGFR WT)): ≤ 5.30

CC(C)(O)[C@@H]1CCN(c2ncc3ncnc(Nc4ccc(Oc5ccn6ncnc6c5)c(Cl)c4)c3n2)C1 [Example 122, (R)-2-(1-(8-((4-([1,2,4]triazolo[1,5-a]pyridin-7-yloxy)-3-chlorophenyl)amino)pyrimido[5,4-d]pyrimidin-2-yl)pyrrolidin-3-yl)propan-2-ol]
pIC50 [1]: 7.71
efflux ratio at 2 h, 1 μM (BCRP; [3]): 7.3
pIC50 [2]: 7.82
pIC50 (ErbB2 WT): 7.64
efflux ratio at 2 h, 1 μM (MDR1 (P-gp)): 1.7
pIC50 (EGFR): 6.02
pIC50 (EGFR wild type (EGFR WT)): ≤ 5.30

Cc1cc(Nc2ncnc3cnc(N(C)[C@H]4CCOC4)nc23)ccc1Oc1ccc2c(c1)ncn2C [Example 131, (S)—N2-methyl-N8-(3-methyl-4-((1-methyl-1H-benzo[d]imidazol-5-yl)oxy)phenyl)-N2-(tetrahydrofuran-3-yl)pyrimido[5,4-d]pyrimidine-2,8-diamine]
pIC50 [1]: 7.44
efflux ratio at 2 h, 1 μM (BCRP; [3]): 1.4
pIC50 [2]: 7.68
pIC50 (ErbB2 WT): 7.70
efflux ratio at 2 h, 1 μM (MDR1 (P-gp)): 1.6
pIC50 (EGFR): 5.49
pIC50 (EGFR wild type (EGFR WT)): ≤ 5.30

Cc1cc(Nc2ncnc3cnc(N4CCN(C5COC5)CC4)nc23)ccc1Oc1ccc2c(c1)ncn2C [Example 159, N-(3-methyl-4-((1-methyl-1H-benzo[d]imidazol-5-yl)oxy)phenyl)-6-(4-(oxetan-3-yl)piperazin-1-yl)pyrimido[5,4-d]pyrimidin-4-amine]
pIC50 [1]: 7.77
efflux ratio at 2 h, 1 μM (BCRP; [3]): 9.6
pIC50 [2]: 7.54
pIC50 (ErbB2 WT): 7.39
efflux ratio at 2 h, 1 μM (MDR1 (P-gp)): 2.1
pIC50 (EGFR): 5.13
pIC50 (EGFR wild type (EGFR WT)): ≤ 5.30

CO[C@@H]1CN(c2ncc3ncnc(Nc4ccc(Oc5ccc6c(c5)ncn6C)c(C)c4)c3n2)C[C@@H]1O [Example 194, (3S,4R)-4-methoxy-1-(8-((3-methyl-4-((1-methyl-1H-benzo[d]imidazol-5-yl)oxy)phenyl)amino)pyrimido[5,4-d]pyrimidin-2-yl)pyrrolidin-3-ol]
pIC50 [1]: 7.35
efflux ratio at 2 h, 1 μM (BCRP; [3]): 32.4
pIC50 [2]: 7.75
pIC50 (ErbB2 WT): 7.63
efflux ratio at 2 h, 1 μM (MDR1 (P-gp)): 1.9
pIC50 (EGFR): 5.06
pIC50 (EGFR wild type (EGFR WT)): ≤ 5.30

Cc1cc(Nc2ncnc3cnc(N4CC[C@@](C)(O)C4)nc23)ccc1Oc1ccc2c(c1)ncn2C [Example 154, (R)-3-methyl-1-(8-((3-methyl-4-((1-methyl-1H-benzo[d]imidazol-5-yl)oxy)phenyl)amino)pyrimido[5,4-d]pyrimidin-2-yl)pyrrolidin-3-ol]
pIC50 [1]: 7.80
efflux ratio at 2 h, 1 μM (BCRP; [3]): 34
pIC50 [2]: 7.99
pIC50 (ErbB2 WT): 8.10
efflux ratio at 2 h, 1 μM (MDR1 (P-gp)): 2.1
pIC50 (EGFR): 5.71
pIC50 (EGFR wild type (EGFR WT)): ≤ 5.30

Cc1cc(Nc2ncnc3cnc(N4CCO[C@H](C)C4)nc23)ccc1Oc1ccc2c(c1)ncn2C [Example 265]
pIC50 [1]: 7.77
efflux ratio at 2 h, 1 μM (BCRP; [3]): 1.8
pIC50 [2]: 7.33
pIC50 (ErbB2 WT): 7.34
efflux ratio at 2 h, 1 μM (MDR1 (P-gp)): 1.1
pIC50 (EGFR): 5.27
pIC50 (EGFR wild type (EGFR WT)): ≤ 5.30

Cc1cc(Nc2ncnc3cnc(N4C[C@H](O)C(F)(F)C4)nc23)ccc1Oc1ccc2c(c1)ncn2C [Example 170, (S)-4,4-difluoro-1-(8-((3-methyl-4-((1-methyl-1H-benzo[d]imidazol-5-yl)oxy)phenyl)amino)pyrimido[5,4-d]pyrimidin-2-yl)pyrrolidin-3-ol]
pIC50 [1]: 8.47
efflux ratio at 2 h, 1 μM (BCRP; [3]): 36
pIC50 [2]: 7.70
pIC50 (ErbB2 WT): 7.54
efflux ratio at 2 h, 1 μM (MDR1 (P-gp)): 2.1
pIC50 (EGFR): ≤ 5.00
pIC50 (EGFR wild type (EGFR WT)): ≤ 5.30

Source: US11834453B2, “Substituted pyrimido[5,4-d]pyrimidines as HER2 inhibitors” (Array BioPharma Inc., priority 2020, dated 2023)
